Data set [1] addresses GluN1/GluN2A subtype of NMDA receptors (Rattus norvegicus, UniProt Q00959). The experiment in a line: NMDA receptor subunit selectivity, GluN1/GluN2A in Xenopus oocytes. Type of data set: cell-based. The following applies: 2 min; 10 μM antagonist with 50 μM glutamate and 30 μM glycine, two min; agonists alone = 100%; read-out: GluN2A % Current Remaining. On the procedure:
(§1) Stage V and VI oocytes were surgically removed from the ovaries of large, well-fed and healthy Xenopus laevis anesthetized with 3-amino-benzoic acid ethyl ester (3 gm/l). Clusters of isolated oocytes were incubated with 292 U/ml Worthington (Freehold, N.J.) type IV collagenase or 1.3 mg/ml collagenase (Life Technologies, Gaithersburg, Md.; 17018-029) for 2 hr in Ca^2+-free solution comprised of (in mM) 115 NaCl, 2.5 KCl, and 10 HEPES, pH 7.5, with slow agitation to remove the follicular cell layer. Oocytes were then washed in the same solution supplemented with 1.8 mM CaCl2 and maintained in Barth's solution comprised of (in mM): 88 NaCl, 1 KCl, 2.4 NaHCO3, 10 HEPES, 0.82 MgSO4, 0.33 Ca(NO3)2, and 0.91 CaCl2 and supplemented with 100 μg/ml gentamycin, 10 μg/ml streptomycin, and 10 μg/ml penicillin. Oocytes were manually defolliculated and injected within 24 hrs of isolation with 3-5 ng of GluN1 subunit cRNA and 7-10 ng of GluN2 cRNA subunit in a 50 nl volume, and incubated in Barth's solution at 18° C. for 2-7 d. Glass injection pipettes had tip sizes ranging from 10-20 microns, and were backfilled with mineral oil. cRNA was synthesized from linearized template cDNA for rat glutamate receptor subunits according to manufacturer specifications (Ambion).
(§2) Two electrode voltage-clamp recordings were made 2-7 days post-injection. Oocytes were placed in a dual-track plexiglass recording chamber with a single perfusion line that splits in a Y-configuration to perfuse two oocytes. Dual recordings were made at room temperature (23° C.) using two Warner 00725B two-electrode voltage clamp amplifiers, arranged as recommended by the manufacturer. Glass microelectrodes (1-10 Megaohms) were filled with 300 mM KCl (voltage electrode) or 3 M KCl (current electrode). The bath clamps communicated across silver chloride wires placed into each side of the recording chamber, both of which were assumed to be at a reference potential of 0 mV. Oocytes were perfused with a solution comprised of (in mM) 90 NaCl, 1 KCl, 10 HEPES, […] and 0.5 BaCl2; pH was adjusted by addition of 1-3 M NaOH or HCl. Oocytes were recorded under voltage clamp at −40 mV. Final concentrations for glutamate and glycine were 50 μM and 30 μM, respectively. Concentration-response curves for experimental compounds were obtained by applying in successive fashion maximal glutamate/glycine, followed by glutamate/glycine plus variable concentrations of experimental compounds. Dose response curves consisting of 4 to 8 concentrations were obtained in this manner. The baseline leak current at −40 mV was measured before and after recording, and the full recording linearly corrected for any change in leak current. The level of inhibition by applied experimental compounds was expressed as a percent of the initial glutamate response, and averaged together across oocytes from multiple experiments. Results were pooled, and the average percent responses at antagonist concentrations were fit by the equation,
(§3) GluN1/GluN2A and GluN1/GluN2D subtype of NMDA receptors were expressed in Xenopus laevis as described in Example 13. Here, a 10 μM concentration of the antagonist was perfused with 50 μM glutamate and 30 μM glycine onto the oocyte for two min and the remaining current in the presence of the antagonist was compared to the maximal current obtained with 50 μM glutamate and 30 μM glycine alone (defined as 100%).

For data set [2], the target named is GluN1/GluN2B receptors (Homo sapiens, UniProt Q05586+Q13224). In words: IC50 of GluN1/GluN2B receptors expressed in Xenopus oocytes (two electrode voltage-clamp), human. Type of data set: cell-based. To be noted: for IC50: 30 μM glycine. A general note: Two-electrode voltage clamp is typically applied to oocytes expressing channels or transporters.
Chain of GluN1/GluN2B receptors (Homo sapiens, UniProt Q05586+Q13224) (Q13224 27-1484, other chains not shown): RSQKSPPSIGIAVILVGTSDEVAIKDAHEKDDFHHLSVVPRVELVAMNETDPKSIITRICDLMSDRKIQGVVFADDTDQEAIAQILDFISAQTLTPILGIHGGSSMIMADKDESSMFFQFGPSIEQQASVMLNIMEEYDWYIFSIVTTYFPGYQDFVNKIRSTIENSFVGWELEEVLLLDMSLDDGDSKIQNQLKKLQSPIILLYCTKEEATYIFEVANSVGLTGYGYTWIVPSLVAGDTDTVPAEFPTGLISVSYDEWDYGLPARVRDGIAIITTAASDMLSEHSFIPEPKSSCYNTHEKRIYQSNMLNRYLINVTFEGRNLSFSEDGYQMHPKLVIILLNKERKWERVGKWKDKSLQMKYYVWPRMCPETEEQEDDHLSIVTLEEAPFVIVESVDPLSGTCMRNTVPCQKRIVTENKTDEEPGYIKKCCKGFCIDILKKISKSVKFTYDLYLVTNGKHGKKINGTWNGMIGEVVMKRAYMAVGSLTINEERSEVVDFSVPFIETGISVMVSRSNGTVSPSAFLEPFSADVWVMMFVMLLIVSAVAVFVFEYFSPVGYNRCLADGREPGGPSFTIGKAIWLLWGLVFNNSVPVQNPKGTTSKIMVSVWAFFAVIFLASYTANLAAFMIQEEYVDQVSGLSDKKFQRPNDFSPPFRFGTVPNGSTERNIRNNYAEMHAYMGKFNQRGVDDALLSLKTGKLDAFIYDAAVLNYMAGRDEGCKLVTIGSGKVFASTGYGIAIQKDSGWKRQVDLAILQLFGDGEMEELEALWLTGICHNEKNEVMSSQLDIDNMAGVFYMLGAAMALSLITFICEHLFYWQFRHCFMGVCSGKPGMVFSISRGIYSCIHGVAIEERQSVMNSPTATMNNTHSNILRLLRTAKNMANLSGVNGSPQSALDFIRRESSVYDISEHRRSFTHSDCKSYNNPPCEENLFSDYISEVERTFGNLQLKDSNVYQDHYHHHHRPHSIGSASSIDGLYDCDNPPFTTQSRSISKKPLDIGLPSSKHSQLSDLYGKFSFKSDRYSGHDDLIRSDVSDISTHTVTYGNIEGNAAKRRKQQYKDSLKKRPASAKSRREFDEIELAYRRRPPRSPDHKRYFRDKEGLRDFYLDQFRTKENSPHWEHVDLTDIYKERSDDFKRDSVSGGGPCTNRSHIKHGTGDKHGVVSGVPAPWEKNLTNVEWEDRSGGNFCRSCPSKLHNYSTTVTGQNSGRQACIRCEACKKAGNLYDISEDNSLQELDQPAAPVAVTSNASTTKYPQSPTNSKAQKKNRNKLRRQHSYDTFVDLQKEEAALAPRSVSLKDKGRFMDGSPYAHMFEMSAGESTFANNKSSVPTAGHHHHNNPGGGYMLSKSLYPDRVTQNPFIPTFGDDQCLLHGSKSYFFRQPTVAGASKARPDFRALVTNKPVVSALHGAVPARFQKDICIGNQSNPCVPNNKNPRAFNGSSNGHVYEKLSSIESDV
For data set [3], the target named is GluN1/GluN2B receptors (Rattus norvegicus, UniProt P35439+Q00960). In words: IC50 of GluN1/GluN2B receptors expressed in Xenopus oocytes (two electrode voltage-clamp), rat. To be noted: pH 7.4, 50 μM glutamate, 30 μM glycine. Type of data set: cell-based. The procedure:
as §1, §2
Percent Response=(100−minimum)/(1+([conc]/IC50)^nH)+minimum
where minimum is the residual percent response in saturating concentration of the experimental compounds, IC50 is the concentration of antagonist that causes half of the achievable inhibition, and nH is a slope factor describing steepness of the inhibition curve. Minimum was constrained to be greater than or equal to 0.
Recordings were made at pH 6.9, pH 7.4, and pH 7.6. The pH Boost ratio calculated by dividing the IC50 measured at pH 7.6 by the IC50 measured at pH 6.9.

In the next data set the test system is α1-Adrenergic. In words: α1-Adrenergic binding, displacement of [3H]-prazosin from brain membranes. The following applies: 3 μM test compound, 0.25 nM [3H]-prazosin, Wistar rat brain membranes, duplicate. The procedure: (§4) Binding to the human ether-a-go-go potassium channel (hERG) expressed in HEK293 cells by displacement of 1.5 nM [3H]-astemizole. Each result represents the average of displacement binding experiments done in duplicate at 10 uM of the test compound. Percent displacement of 0.25 nM [3H]-prazosin from Wistar rat brain membranes. Each result represents the average of displacement binding experiments done in duplicate at 3 μM of the test compound.

Data set [4] has as its target GluN1/GluN2D subtype of NMDA receptors (Rattus norvegicus, UniProt Q62645). In words: NMDA receptor subunit selectivity, GluN1/GluN2D in Xenopus oocytes. Type of data set: cell-based. To be noted: 2 min; 10 μM antagonist with 50 μM glutamate and 30 μM glycine, two min; agonists alone = 100%; read-out: GluN2D % Current Remaining. On the procedure:
as §1, §2, §3

In data set [5] the target is GluN1/GluN2B-NMDA receptors (Homo sapiens, UniProt Q05586+Q13224). In words: Noncompetitive block of GluN1/GluN2B-NMDA receptors in Xenopus oocytes. Type of data set: cell-based. The following applies: 0.1 μM compound 24; increasing glutamate (30 μM glycine) or increasing glycine (30 μM glutamate). On the procedure: Results shown are the mean±SEM of 7 (panel A) or 6 (panel B) oocytes.
Stage V and VI oocytes were surgically removed from the ovaries of large, well-fed and healthy Xenopus laevis anesthetized with 3-amino-benzoic acid ethyl ester (3 gm/l). Clusters of isolated oocytes were incubated with 292 U/ml Worthington (Freehold, N.J.) type IV collagenase or 1.3 mg/ml collagenase (Life Technologies, Gaithersburg, Md.; 17018-029) for 2 hr in Ca^2+-free solution comprised of (in mM) 115 NaCl, 2.5 KCl, and 10 HEPES, pH 7.5, with slow agitation to remove the follicular cell layer. Oocytes were then washed in the same solution supplemented with 1.8 mM CaCl2 and maintained in Barth's solution comprised of (in mM): 88 NaCl, 1 KCl, 2.4 NaHCO3, 10 HEPES, 0.82 MgSO4, 0.33 Ca(NO3)2, and 0.91 CaCl2 and supplemented with 100 μg/ml gentamycin, 10 μg/ml streptomycin, and 10 μg/ml penicillin. […]
Two electrode voltage-clamp recordings were made 2-7 days post-injection. […] Oocytes were recorded under voltage clamp at −40 mV. […] The baseline leak current at −40 mV was measured before and after recording, and the full recording linearly corrected for any change in leak current. The level of inhibition by applied experimental compounds was expressed as a percent of the initial glutamate response, and averaged together across oocytes from multiple experiments. […]

Data set [6] deals with T1, human ether-a-go-go potassium channel (hERG) expressed in HEK293 cells (Homo sapiens, UniProt Q12809).
T1 construct: expressed in transfected cells; host or cells: HEK293 cells
In words: hERG binding, displacement of [3H]-astemizole. The following applies: 10 μM test compound, 1.5 nM [3H]-astemizole, duplicate. On the procedure: as §4
A general note: hERG is a cardiac potassium channel; its block is linked to QT prolongation.

Each structure is given as a SMILES string. Like-named read-outs stand apart in the source and are kept apart here.

Chain of GluN1/GluN2D subtype of NMDA receptors (Q62645 28-1323, other chains not shown): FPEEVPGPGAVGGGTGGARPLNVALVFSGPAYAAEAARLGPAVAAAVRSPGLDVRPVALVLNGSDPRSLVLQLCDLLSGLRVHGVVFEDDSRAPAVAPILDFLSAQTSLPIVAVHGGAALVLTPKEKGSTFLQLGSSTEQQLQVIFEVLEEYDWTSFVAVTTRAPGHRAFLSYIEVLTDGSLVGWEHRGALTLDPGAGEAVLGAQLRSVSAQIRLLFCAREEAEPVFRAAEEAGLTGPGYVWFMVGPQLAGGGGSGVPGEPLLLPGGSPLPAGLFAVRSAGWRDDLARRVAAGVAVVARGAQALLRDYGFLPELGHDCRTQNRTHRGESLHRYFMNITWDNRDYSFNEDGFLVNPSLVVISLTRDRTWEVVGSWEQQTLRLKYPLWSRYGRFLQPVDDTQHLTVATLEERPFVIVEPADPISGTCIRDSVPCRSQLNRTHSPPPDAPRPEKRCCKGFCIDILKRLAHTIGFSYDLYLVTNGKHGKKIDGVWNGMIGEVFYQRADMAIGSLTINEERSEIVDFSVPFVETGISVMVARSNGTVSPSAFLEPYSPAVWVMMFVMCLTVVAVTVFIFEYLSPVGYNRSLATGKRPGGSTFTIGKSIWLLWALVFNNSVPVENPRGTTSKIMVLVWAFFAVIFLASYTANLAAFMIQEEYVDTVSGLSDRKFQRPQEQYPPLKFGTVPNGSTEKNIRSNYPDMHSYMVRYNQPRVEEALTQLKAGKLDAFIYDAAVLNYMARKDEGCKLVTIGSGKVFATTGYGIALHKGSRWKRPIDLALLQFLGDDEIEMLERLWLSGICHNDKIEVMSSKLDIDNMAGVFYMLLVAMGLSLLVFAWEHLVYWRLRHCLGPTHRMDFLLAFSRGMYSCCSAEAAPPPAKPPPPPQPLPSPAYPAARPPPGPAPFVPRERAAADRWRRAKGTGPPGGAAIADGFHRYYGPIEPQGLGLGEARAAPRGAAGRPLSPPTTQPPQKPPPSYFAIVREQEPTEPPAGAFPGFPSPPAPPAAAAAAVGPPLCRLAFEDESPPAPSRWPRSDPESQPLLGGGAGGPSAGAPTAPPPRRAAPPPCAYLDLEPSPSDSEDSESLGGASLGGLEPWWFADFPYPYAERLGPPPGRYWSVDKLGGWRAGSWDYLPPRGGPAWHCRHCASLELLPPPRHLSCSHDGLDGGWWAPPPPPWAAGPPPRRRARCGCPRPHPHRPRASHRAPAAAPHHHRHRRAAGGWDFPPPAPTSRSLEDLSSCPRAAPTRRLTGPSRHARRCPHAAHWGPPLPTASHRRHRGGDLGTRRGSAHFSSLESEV
Chain of GluN1/GluN2A subtype of NMDA receptors (Q00959 23-1464, other chains not shown): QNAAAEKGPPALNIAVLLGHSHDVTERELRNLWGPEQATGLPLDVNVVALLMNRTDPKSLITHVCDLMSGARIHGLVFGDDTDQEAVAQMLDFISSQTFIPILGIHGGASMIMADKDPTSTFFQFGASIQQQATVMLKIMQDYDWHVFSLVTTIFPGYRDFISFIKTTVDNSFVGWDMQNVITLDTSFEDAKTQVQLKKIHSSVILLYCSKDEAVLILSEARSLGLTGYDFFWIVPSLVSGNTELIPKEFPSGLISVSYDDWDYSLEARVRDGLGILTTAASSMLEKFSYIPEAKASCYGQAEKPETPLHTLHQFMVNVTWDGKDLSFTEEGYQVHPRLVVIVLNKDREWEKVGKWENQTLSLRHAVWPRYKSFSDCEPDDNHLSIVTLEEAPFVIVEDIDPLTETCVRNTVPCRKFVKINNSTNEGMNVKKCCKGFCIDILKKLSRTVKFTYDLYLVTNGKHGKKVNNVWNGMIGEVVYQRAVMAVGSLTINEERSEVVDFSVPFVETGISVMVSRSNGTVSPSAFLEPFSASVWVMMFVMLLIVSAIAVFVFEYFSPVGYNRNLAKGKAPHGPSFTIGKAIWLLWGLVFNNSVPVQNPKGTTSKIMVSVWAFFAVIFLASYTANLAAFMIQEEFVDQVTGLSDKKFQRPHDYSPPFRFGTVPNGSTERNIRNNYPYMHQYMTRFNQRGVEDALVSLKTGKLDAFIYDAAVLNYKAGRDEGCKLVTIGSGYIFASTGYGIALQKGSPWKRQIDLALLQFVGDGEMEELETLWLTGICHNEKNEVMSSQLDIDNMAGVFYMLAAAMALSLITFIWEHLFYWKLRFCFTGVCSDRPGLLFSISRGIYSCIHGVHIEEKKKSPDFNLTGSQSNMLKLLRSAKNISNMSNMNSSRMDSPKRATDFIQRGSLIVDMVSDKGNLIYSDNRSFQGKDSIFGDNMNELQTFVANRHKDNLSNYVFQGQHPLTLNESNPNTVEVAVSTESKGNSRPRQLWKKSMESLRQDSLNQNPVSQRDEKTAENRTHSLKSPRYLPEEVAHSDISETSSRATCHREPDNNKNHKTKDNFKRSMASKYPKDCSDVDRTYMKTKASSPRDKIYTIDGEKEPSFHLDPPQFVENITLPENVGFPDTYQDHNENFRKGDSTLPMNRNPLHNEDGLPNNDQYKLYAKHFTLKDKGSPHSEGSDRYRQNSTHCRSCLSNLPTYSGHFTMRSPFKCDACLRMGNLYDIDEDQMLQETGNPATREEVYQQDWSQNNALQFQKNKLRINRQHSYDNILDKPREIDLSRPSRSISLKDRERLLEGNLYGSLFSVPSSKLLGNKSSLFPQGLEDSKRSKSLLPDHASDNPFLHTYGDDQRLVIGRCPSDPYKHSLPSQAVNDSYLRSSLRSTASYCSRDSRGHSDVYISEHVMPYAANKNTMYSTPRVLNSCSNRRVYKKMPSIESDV

Usually IC50 stands for the concentration that inhibits the measured activity by half. Consider `O=C1CCc2cc(OCC3CN(C(=O)Nc4ccc(C(F)(F)F)cc4)C3)ccc2N1` [Compound 24, 3-(((2-oxo-1,2,3,4-tetrahydroquinolin-6-yl)oxy)methyl)-N-(4-(trifluoromethyl)phenyl)azetidine-1-carboxamide], for which the figures for the remaining activity at 10 µM in data set [1] and in data set [4] were 94.2% and 84.5%, respectively. The “Human pH Boost Ratio (IC50 pH 7.6/IC50 pH 6.9)” value on GluN1/GluN2B receptors [2] (IC50 at pH 7.6 divided by IC50 at pH 6.9) turned out to be 3.6. For the same compound, the concentration for half-maximal inhibition (IC50) at GluN1/GluN2B receptors [2] (pH 6.9, 50 μM glutamate, read-out: Human pH 6.9 IC50) was determined as 27 nM; on GluN1/GluN2B receptors [2] (pH 7.4, 50 μM glutamate, read-out: Human pH 7.4 IC50), 74 nM; against GluN1/GluN2B receptors [3], 54 nM. Besides, the “α1-Adrenergic binding % Displacement @ 3 μM” value in the data set with α1-Adrenergic is on record as 12%. For the same compound, the “Block on increasing glutamate and increasing glycine” value in data set [5] is “cannot overcome the block”. Besides, the “hERG Binding % Displacement @ 10 μM” value in data set [6] turned out to be 68%.

(Values after US20140148432A1, “Compounds for the Treatment of Neurological Disorders” (priority 2009, published 2014).)
